Reference: PubChem BioAssay (NCI)
“And” between values parts separate entries of the source, which are not always exact repeats. Equal entries are not always repeated.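 Protocol summary: plate cells (96-well), add compound at 5 concentrations, incubate 48 h, interpolate endpoints linearly. Here, GI50 denotes the concentration required for 50% inhibition of growth. TGI marks complete inhibition of growth.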

Assays:
Assay in all cases: growth of human tumour cells (NCI), 48 h
786-0 renal = test system: 786-0 renal
A549 NSCLC = test system: A549 NSCLC
ACHN renal = test system: ACHN renal
KM12 colon = test system: KM12 colon
MOLT-4 leukemia = test system: MOLT-4 leukemia
NCI-H460 lung = test system: NCI-H460 lung
OVCAR-5 ovarian = test system: OVCAR-5 ovarian
SK-MEL-2 melanoma = test system: SK-MEL-2 melanoma
COLO 205 colon = test system: COLO 205 colon

SMILES	TGI (786-0 renal) [µM]	TGI (A549 NSCLC) [µM]	TGI (ACHN renal) [µM]	TGI (KM12 colon) [µM]	TGI (MOLT-4 leukemia) [µM]	TGI (NCI-H460 lung) [µM]	TGI (OVCAR-5 ovarian) [µM]	TGI (SK-MEL-2 melanoma) [µM]	TGI (COLO 205 colon)	GI50 (786-0 renal) [µM]	GI50 (A549 NSCLC) [µM]	GI50 (ACHN renal) [µM]	GI50 (COLO 205 colon) [µM]	GI50 (KM12 colon) [µM]	GI50 (MOLT-4 leukemia) [µM]	GI50 (NCI-H460 lung) [µM]	GI50 (OVCAR-5 ovarian) [µM]	GI50 (SK-MEL-2 melanoma) [µM]
Nc1ccc2n[se]nc2c1	> 100	> 100	> 100	> 100	> 100	> 100	> 100	> 100										
CCCCC1=CSC(c2ccccc2)=C(c2ccccc2)S1	> 100	> 100		> 100	> 100	> 100			> 100 µM									
COC(=O)CCSC(=O)Nc1ccc(N=Nc2ccccc2)cc1	> 100	> 100	> 100	> 100	> 100	> 100	> 100		47.7 µM									
Nc1nnc2c(-c3ccccc3)[nH]nc2n1	> 100	> 100	> 100	> 100	> 100	> 100	> 100	> 100	> 100 µM									
Cc1ccc(NC(=O)CCc2nc(=S)[nH][nH]2)cc1	> 100	> 100	> 100	> 100	> 100	> 100	> 100	> 100	> 100 µM									
O=[N+]([O-])c1ccc(C2=Nc3ccccc3S(=O)C(c3ccccc3)C2)cc1 (centres undefined)	35.1	> 100	44.2	41.3	57.7	71	92.8	> 100	40 µM									
CCOc1ccccc1N=Nc1ccc2oc(=O)c(C(C)=O)cc2c1	> 100	> 100		> 100	> 100		> 100	> 100	> 100 µM									
COC(=O)C(=O)Cc1nc2ccccc2s1	> 100	> 100	> 100		> 100		> 100	> 100	> 100 µM									
Cn1c(CBr)nc2c1C(=O)c1nc(CBr)[nH]c(=O)c1C2=O	> 100	> 100	> 100		> 100	> 100			> 100 µM									
CC(C)(CN1C(=O)C(Cl)=C(Cl)C1=O)CN1C(=O)C(Cl)=C(Cl)C1=O	28.6	> 72.7	21.7	57.4	30.1	> 77.3	42.7	41	8.66 µM									
O=C(O/N=C1\CCCC\C1=C/c1ccccc1)c1ccc([N+](=O)[O-])cc1	> 100	> 100	> 100		> 100	> 100	> 100	> 100	> 100 µM									
O=S1(=O)N2CN3CN(C2)CN1C3	179	935	283	306	864	272	362	473	> 31.6 µM and 73.8 µM									
Cc1ccc(NC(=O)CCCC(=O)CC(=O)c2ccc(Br)cc2)cc1	> 100	> 100	> 100	> 100	> 100	> 100	> 100	> 100	> 100 µM									
N#CCCn1[nH]c(=O)c(Cl)c(Cl)c1=O	39.6	59.4	30.7	32.1	37.4	28.3	32.8	29.6	57.3 µM									
CC1(C)CCC(Sc2ccccc2)O1 (centres undefined)	> 100	> 100	> 100	> 100	> 100	> 100		> 100	> 100 µM									
O=C1c2ccccc2C(=O)c2cc3c(cc21)CS(=O)C3	> 100	> 100	> 100	> 100	> 100	> 100	> 100	> 100	> 100 µM									
O=C(c1ccc(O)cc1O)C1C(c2ccc(O)cc2)OC(c2ccc(O)cc2)C1C(=O)c1ccc(O)cc1O (centres undefined)	23.2	> 100	63.1	> 100		> 100	29.7	40.3										
COc1ccccc1NC(=O)C1=C(C)NC(C)=C(C(=O)Nc2ccccc2OC)C1c1ccccc1[N+](=O)[O-]	35.5	> 100	37.5	35	49.5	32.8	85.4	26	31.6 µM									
COc1cc(/C=C/C(=O)c2cccc(-n3cc(-c4cc(OC)c(OC)c(OC)c4)[nH]c3=O)c2)cc(OC)c1OC	3.14	18.5	3.3	2.46	8.08	3.98	13.4	7.63	3.13 µM	1.59	3.03	1.74	1.52	1.12	1.75	1.73	4.38	3.02
